Experimental data taken from patent publication US20250084128A1, “ANTIVIRAL […]-STAPLED SARS-CoV-2 PEPTIDE-C[…] USES THEREOF” (priority 2021, published 2025).
“Also recorded” adds a separate entry of the source.

How the values were obtained:
Format in all cases: cell-based
live SARS-CoV-2 virus = test system: live SARS-CoV-2 virus
[1] = test system: GFP-expressing SARS-CoV-1 (Urbani) pseudovirus
[2] = test system: pseudotyped SARS-CoV-2 virus

| Substance | differential antiviral activity (live SARS-CoV-2 virus) | antiviral activity (live SARS-CoV-2 virus) | antiviral activity, i, i+7 staple scan (live SARS-CoV-2 virus) | antiviral activity [1] | antiviral activity [2] |
| --- | --- | --- | --- | --- | --- |
| DISGINASVVNIQK8IDRLNEXAKNLNESLIDLQELGK [SEQ ID NO: 11] | little to no activity | – | – | – | – |
| DISGINASVVNIQKEI8RLNEVAXNLNESLIDLQELGK [SEQ ID NO: 13] | moderate activity | consistent antiviral activity | potent anti-viral activity; also recorded: among the most potent antiviral activity; also recorded: uniquely potent | consistent antiviral activity | consistent antiviral activity |
| DISGINASVVNIQKEID8LNEVAKXLNESLIDLQELGK [SEQ ID NO: 14] | little to no activity | – | – | – | – |
| DISGINASVVNIQKEIDR8NEVAKNXNESLIDLQELGK [SEQ ID NO: 15] | little to no activity | – | – | – | – |
| DISGINASVVNIQKEIDRL8EVAKNLXESLIDLQELGK [SEQ ID NO: 16] | moderate activity | – | – | – | – |
